Assay results taken from patent US8389573B2, “Glycyrrhetinic acid derivatives” (Wellington Laboratories Inc., priority 2006, dated 2013).

What was measured:
LNCaP cells = assay: Western blot analysis and DNA fragmentation assay in LNCaP cells; format: cell-based, human
Description: Cell Proliferation and DNA Fragmentation Assays: LNCaP prostate cancer cells (2×10^4 per well) were added to 12-well plates and allowed to attach for 24 hr. The medium was then changed to DMEM/Ham's F-12 media containing 2.5% charcoal-stripped FBS, and either vehicle (DMSO) or the indicated C-DIMs were added. Fresh medium and indicated compounds were added every 48 hr, and cells were then trypsinized and counted after 2, 4, and 6 days using a Coulter Z1 cell counter (Beckman Coulter, Fullerton, Calif.). Each experiment was done in triplicate, and results are expressed as means±S.E. for each set of three experiments. The DNA fragmentation assay was performed using a BioVision Apoptotic DNA ladder extraction kit (BioVision, Mountain View, Calif.) according to the manufacturer's protocol.
Western Blot Analysis: Cells were seeded in DMEM:Ham's F-12 media containing 2.5% charcoal-stripped FBS for 24 hr and then treated with either the vehicle (DMSO) or the indicated compounds. Cells were collected by scraping in 150 μl high salt lysis buffer (50 mM HEPES, 0.5 M NaCl, 1.5 mM MgCl2, 1 mM EGTA, 10% (v/v) glycerol, 1% (v/v) Triton-X-100 and 5 μL/ml of Protease Inhibitor Cocktail (Sigma). The lysates were incubated on ice for 1 hr with intermittent vortexing followed by centrifugation at 20,000 g for 10 min at 4° C. Before electrophoresis, samples were boiled for 3 min at 100° C.; the amount of protein was determined and 60 μg protein applied per lane. Samples were subjected to SDS-PAGE on 10% gel at 120 V for 3 to 4 hr. Proteins were transferred on to polyvinylidene difluoride membrane (PVDF; Bio-Rad, Hercules, Calif.) at 0.9 amp for 90 min at 4° C. in 1× transfer buffer (48 mM Tris-HCl, 39 mM glycine, and 0.025% SDS). The membranes were blocked for 30 min with 5% TBST-Blotto (10 mM Tris-HCl, 150 mM NaCl (pH 8.0), 0.05% Triton X-100 and 5% non-fat dry milk) and incubated in fresh 5% TBST-Blotto with primary antibody overnight with gentle shaking at 4° C. After washing with TBST for 10 min, the PVDF membrane was incubated with secondary antibody (1:5000) in 5% TBST-Blotto for 2-3 hr. The membrane was washed with TBST for 10 min and incubated with 10 ml of chemiluminescence substrate (PerkinElmer Life Sciences) for 1.0 min and exposed to ImageTeK-H medical imaging film (Eastman American X-ray Supply, Inc.).

SW480 cells = assay: Western blot analysis in SW480 cells; format: cell-based, human
Description: SW-480 and HT-29 (3×10^5) cells were seeded in six-well plates in DMEM/Ham's F-12 media containing 2.5% charcoal-stripped FBS for 24 h and then treated with either the vehicle (DMSO) or the indicated compounds. Whole-cell lysates were obtained using high-salt buffer [50 mM HEPES, 500 mM NaCl, 1.5 mM MgCl2, 1 mM EGTA, 10% glycerol, and 1% Triton X-100, pH 7.5, and 5 μl/ml Protease Inhibitor Cocktail (Sigma-Aldrich)]. Protein samples were incubated at 100° C. for 2 min, separated on 10% SDS-PAGE at 120 V for 3 to 4 h in 1× running buffer (25 mM Tris-base, 192 mM glycine, and 0.1% SDS, pH 8.3), and transferred to polyvinylidene difluoride membrane (PVDF; Bio-Rad, Hercules, Calif.) at […] for 16 h at 4° C. in 1× transfer buffer (48 mM Tris-HCl, 39 mM glycine, and 0.025% SDS). The PVDF membrane was blocked in 5% TBST-Blotto (10 mM Tris-HCl, 150 mM NaCl, pH 8.0, 0.05% Triton X-100, and 5% nonfat dry milk) with gentle shaking for 30 min and was incubated in fresh 5% TBST-Blotto with 1:1000 (for caveolin-1, p27, p21, cyclin D1, Grp78), 1:500 (for KLF4, NAG-1), 1:250 (for PARP), and 1:5000 (for β-actin) primary antibody overnight with gentle shaking at 4° C. After washing with TBST for 10 min, the PVDF membrane was incubated with secondary antibody (1:5000) in 5% TBST-Blotto for 90 min. The membrane was washed with TBST for 10 min, incubated with 10 ml of chemiluminescence substrate (PerkinElmer) for 1.0 min, and exposed to Kodak X-OMAT AR autoradiography film (Eastman Kodak, Rochester, N.Y.).

Structure (SMILES): COC(=O)[C@@]1(C)CC[C@]2(C)CC[C@]3(C)C(=CC(=O)[C@@H]4[C@@]5(C)C=C(C#N)C(=O)C(C)(C)[C@@H]5CC[C@]43C)[C@@H]2C1 [β-CDODA-Me, Methyl 2-cyano-3,11-dioxo-18β-oleana-1,12-dien-30-oate]
- concentrations that decrease AR and PSA expression (LNCaP cells): 1 to 2.5 µM
- degradation of cyclin D1 after cotreatment with MG132 (LNCaP cells): inhibited
- downregulation of AR, PSA and FKBP51 proteins after cotreatment with T007 or MG132 (LNCaP cells): not affected
- induced proapoptotic responses after cotreatment with T007 (LNCaP cells): not inhibited
- JNK (p-JNK), PI3K (p-Akt) and MAPK (p-Erk) pathways (LNCaP cells; 2.5 μM): induces activation
- decreased expression of AR, PSA and FKBP51 with kinase inhibitors (LNCaP cells; 2.5 μM): unaffected
- induction of EGR-1, ATF-3 and NAG-1 (LNCaP cells; 2.5 μM): time-dependent induction
- p-Erk activation (LNCaP cells; 2.5 μM): remained elevated for 24 hr
- time of maximal activation of JNK (LNCaP cells; 2.5 μM): 8 h
- time of maximal activation of PI3K (LNCaP cells; 2.5 μM): 8 to 12 h
- AR, PSA and FKBP51 expression (LNCaP cells; 1-5 μM, presence or absence of 10 nM DHT): concentration-dependent decrease
- NAG-1 and ATF-3 proapoptotic proteins (LNCaP cells; 24 hr, 1-5 μM): induced
- cyclin D1 proteins and Rb phosphorylation (LNCaP cells; 24 hr, 1-5 μM): decrease
- p27 and p21 proteins (LNCaP cells; 24 hr, 1-5 μM): concentration-dependent induction
- proapoptotic responses accompanying NAG-1/ATF-3 induction (LNCaP cells; 24 hr, 1-5 μM): caspase-dependent PARP cleavage, DNA fragmentation, and decreased bcl2 expression
- time course of PARP cleavage, AR and Sp1 (LNCaP cells; up to 24 hr): time-dependent induction of PARP cleavage and a decrease of both AR and Sp1
- KLF4 induction (SW480 cells; SW480, 0.5-7.5 μM): induction
- NAG-1 induction (SW480 cells; SW480, 24 hr): not induced
- induction of GRP78 protein (ER stress) (SW480 cells; SW480, 24 hr): not observed
- KLF-4 induction after cotreatment with T007 (SW480 cells; SW480, 24 hr, 10 μM T007): blocks this induction response
- down regulation of cyclin D1, p27 or PARP cleavage after cotreatment with T007 (SW480 cells; SW480, 24 hr, 10 μM T007): does not affect
- PARP cleavage (indicator of apoptosis) (SW480 cells; SW480, 24 hr, 0.5-5.0 μM): only observed at higher concentrations
- p27 protein (SW480 cells; SW480, 24 hr, 0.5-5.0 μM): dose-dependent increase
- Cyclin D1 and p21 protein expression (SW480 cells; SW480, 24 hr, 0.5 or 1 μM): unchanged
- Cyclin D1 and p21 protein expression (SW480 cells; SW480, 24 hr, 2.5 and 5.0 μM): decreased
- caveolin-1 protein expression (SW480 cells; SW480, treatment for 3 days): did not affect expression of caveolin-1
